In the supplement of paper PMC11061612:

What was measured:
Experiment in all cases: combination Emax (second highest fraction inhibited in the dose matrix, 72 h); higher = more inhibition; extreme values may be limits of the assay
[1] = tested on: DG-75 (Burkitt's Lymphoma)
How it was run: (§1)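 After 24 hours at 37°C and 5% CO2 in 1536-well plates, cells in DMEM/F12 or RPMI plus 10% FBS received two-drug dose matrices for 72 hours. Viability came from CellTiter-Glo 2.0 luminescence and was scaled as inhibition, anchored at 0 by vehicle wells and at 1 by blank wells. Combination Emax is taken as the second-highest inhibition in the matrix, and Bliss excess as the observed combination effect less EA + EB − EA·EB, with EA and EB the single-agent effects.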

[2] = tested on: EW-18 (Ewing's Sarcoma)
How it was run: as §1

[3] = tested on: EW-3 (Ewing's Sarcoma)
How it was run: as §1

[4] = tested on: GOTO (Neuroblastoma)
How it was run: as §1

[5] = tested on: HSC-2 (Oral Cavity Carcinoma)
How it was run: as §1

[6] = tested on: HuP-T3 (Pancreatic Carcinoma)
How it was run: as §1

[7] = tested on: IMR-5 (Neuroblastoma)
How it was run: as §1

[8] = tested on: KINGS-1 (Low Grade Glioma)
How it was run: as §1

[9] = tested on: KLE (Endometrial Carcinoma)
How it was run: as §1

[10] = tested on: KYSE-50 (Esophageal Squamous Cell Carcinoma)
How it was run: as §1

[11] = tested on: LC4-1 (B-Lymphoblastic Leukemia)
How it was run: as §1

[12] = tested on: NCI-H513 (Other Solid Carcinomas)
How it was run: as §1

[13] = tested on: NCI-N87 (Gastric Carcinoma)
How it was run: as §1

[14] = tested on: NH-12 (Neuroblastoma)
How it was run: as §1

[15] = tested on: OCUB-M (Breast Carcinoma)
How it was run: as §1

[16] = tested on: OCUM-1 (Gastric Carcinoma)
How it was run: as §1

[17] = tested on: OVISE (Ovarian Carcinoma)
How it was run: as §1

[18] = tested on: PF-382 (T-Lymphoblastic Leukemia)
How it was run: as §1

[19] = tested on: TGBC11TKB (Gastric Carcinoma)
How it was run: as §1

[20] = tested on: VMRC-LCD (Lung Adenocarcinoma)
How it was run: as §1

## CCc1c2c(nc3ccc(O)cc13)-c1cc3c(c(=O)n1C2)COC(=O)[C@]3(O)CC [SN-38] + O=C(c1cc(Cc2n[nH]c(=O)c3ccccc23)ccc1F)N1CCN(C(=O)C2CC2)CC1 [Olaparib] (first compound max 0.3 µM, 7x7, partner max 10 µM)
[1]
  combination Emax: 0.852
[2]
  combination Emax: 0.773
[3]
  combination Emax: 0.884
[4]
  combination Emax: 0.879
[5]
  combination Emax: 0.977
[6]
  combination Emax: 0.683
[7]
  combination Emax: 1
[8]
  combination Emax: 0.287
[9]
  combination Emax: 0.453
[10]
  combination Emax: 0.269
[11]
  combination Emax: 0.948
[12]
  combination Emax: 0.615
[13]
  combination Emax: 0.722
[14]
  combination Emax: 0.903
[15]
  combination Emax: 0.922
[16]
  combination Emax: 0.645
[17]
  combination Emax: 0.293
[18]
  combination Emax: 1
[19]
  combination Emax: 0.792
[20]
  combination Emax: 0.121
